Measured values reported in patent US20230151021A1, “Compounds and Compositions for Treating Hematologic Malignancies” (priority 2020, published 2023).
Where a name gives a salt, the structure may show the parent alone.

What was measured:
Raji cells = experiment: cells; assay type: cell-based, human; conditions: 100 nM for 72 h
[1] = system: 13 cell lines representing a range of hematologic malignancies; experiment: Cell viability in panel of hematologic malignancy derived cell lines; conditions: 100 nM, 72 hours
Experimental: Cell viability was determined after 72 hours by detecting luminescence. ALL, acute lymphoblastic leukemia; BL, Burkitt's lymphoma; DLBCL, diffuse large B-cell lymphoma; MCL, mantle cell lymphoma; AML, acute myeloid leukemia; MM, multiple myeloma; LCLs, lymphoblastoid cell lines.
(§2) 5000 cells as indicated were cultured in 96-well plate with 100 μl of media. On the next day, Brusatol or associated analogs were added once to the cells without media change. After treatment, the cells were incubated with 100 μl buffer for 10 minutes at room temperature following the instructions of CellTiter-Glo kit (Promega, Madison, Wis.). Luminescence was detected using a multi-mode reader Cytation 5 (BioTek, Winooski, Vt.). Brusatol or its analogs are dissolved in 100% ethanol and diluted in 1×PBS for treatment. Two independent experiments done in duplicates were performed.

[2] = plasma, 1 h
[3] = plasma, 1 h; remark: listed apart in the source
Jeko-1 = experiment: IC50 assays of biotin-conjugated compounds in multiple PDXs and lymphoma cells; conditions: Homo sapiens
Experimental: as §2

PDX223 = experiment: as above; conditions: Homo sapiens
Experimental: as §2

Toledo = experiment: as above; conditions: Homo sapiens
Experimental: as §2

Pfeiffer = experiment: as above; conditions: Homo sapiens
Experimental: as §2

PDX129 = experiment: as above; conditions: Homo sapiens
Experimental: as §2

PI3Kγ = biological target: T1, PI3Kγ (Homo sapiens, UniProt P48736); experiment: Biotin pull-down / competitive binding assay in SU-DHL-4 cell lysates; conditions: SU-DHL-4 lysate, without parent Brusatol
T1 construct: endogenous in cells; host or cells: SU-DHL-4 cells (lysate)
T1 sequence (P48736 whole entry): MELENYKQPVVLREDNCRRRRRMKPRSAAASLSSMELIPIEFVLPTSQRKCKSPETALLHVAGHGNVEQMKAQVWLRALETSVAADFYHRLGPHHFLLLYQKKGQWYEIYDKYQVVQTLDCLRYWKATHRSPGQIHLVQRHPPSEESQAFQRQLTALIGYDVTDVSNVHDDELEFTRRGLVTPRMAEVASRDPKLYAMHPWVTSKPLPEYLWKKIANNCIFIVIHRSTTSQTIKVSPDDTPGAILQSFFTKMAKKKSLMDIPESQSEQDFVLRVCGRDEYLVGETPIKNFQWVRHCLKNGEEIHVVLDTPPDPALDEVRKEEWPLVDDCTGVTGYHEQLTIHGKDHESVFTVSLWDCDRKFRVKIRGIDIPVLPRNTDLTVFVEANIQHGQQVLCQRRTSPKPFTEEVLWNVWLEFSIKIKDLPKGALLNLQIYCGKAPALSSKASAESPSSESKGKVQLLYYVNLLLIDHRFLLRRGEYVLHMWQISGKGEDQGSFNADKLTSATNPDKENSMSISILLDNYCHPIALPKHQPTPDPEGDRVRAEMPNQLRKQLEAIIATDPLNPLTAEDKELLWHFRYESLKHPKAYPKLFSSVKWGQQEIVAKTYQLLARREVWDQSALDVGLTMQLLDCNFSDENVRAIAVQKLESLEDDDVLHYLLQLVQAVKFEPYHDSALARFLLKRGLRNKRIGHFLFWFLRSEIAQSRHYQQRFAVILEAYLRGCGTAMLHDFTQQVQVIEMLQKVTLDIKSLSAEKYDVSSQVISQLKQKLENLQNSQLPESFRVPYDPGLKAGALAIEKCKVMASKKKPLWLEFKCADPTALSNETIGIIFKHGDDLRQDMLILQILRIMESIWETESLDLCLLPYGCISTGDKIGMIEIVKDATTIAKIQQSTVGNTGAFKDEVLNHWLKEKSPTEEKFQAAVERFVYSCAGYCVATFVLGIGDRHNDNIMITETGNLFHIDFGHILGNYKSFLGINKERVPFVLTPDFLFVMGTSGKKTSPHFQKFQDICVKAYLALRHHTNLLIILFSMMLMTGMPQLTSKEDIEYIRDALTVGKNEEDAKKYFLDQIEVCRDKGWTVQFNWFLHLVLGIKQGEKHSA
Experimental: (§1) 30 μg of purified GST-tagged proteins were pre-cleared with Dynabeads M-280 Streptavidin (Invitrogen, Carlsbad, Calif., USA). The supernatants were collected and incubated with Dynabeads M-280 Streptavidin and 0, 300 μM, or 500 μM of biotin-conjugated Brusatol derivatives (51052) overnight at 4° C. For the competitive binding assays, cell lysates from SU-DHL-4 cells were incubated with the biotin-conjugated Brusatol derivative (51048) alone or together with Brusatol as well as Dynabeads M-280 Streptavidin. The complexes were harvested and washed with PBS. The collected beads were mixed with SDS loading buffer for further analysis.

GST-tagged PI3Kγ = GST-tagged PI3Kγ (Homo sapiens, UniProt P48736); experiment: Pull-down assay with purified GST-tagged protein; assay type: binding; conditions: 0, 300 μM, or 500 μM
GST-tagged PI3Kγ, sequence (P48736 whole entry): as above
Experimental: PIK3CG cDNA (Plasmid #20574) was purchased from Addgene and cloned into a pGEX-6P-1 vector (GE Healthcare, Madison, Wis., USA). This GST-tagged PIK3CG plasmid was transformed into E. coli BL21 (DE3)-competent cells (Life Technologies, Carlsbad, Calif., USA) for in vitro expression according to Molecular Cloning (Third Edition).
as §1

## COC(=O)[C@@]12OC[C@]34C([C@@H](O)[C@@H]1O)[C@@]1(C)CC(=O)C(OC(=O)C5CCCN5C(=O)OC(C)(C)C)=C(C)[C@@H]1C[C@H]3OC(=O)[C@H](OC(=O)C=C(C)C)[C@@H]24 (stereo partly drawn) [Compound 11, 1-(tert-butyl) 2-((1R,2S,3S,3aS,3a1R,4R,6aR,7aR,11aS)-1,2-dihydroxy-3-(methoxycarbonyl)-8,11a-dimethyl-4-((3-methylbut-2-enoyl)oxy)-5,10-dioxo-1,3,3a,4,5,6a,7,7a,10,11,11a,11b-dodecahydro-2H-3,3a1-(epoxymethano)dibenzo[de,g]chromen-9-yl)(2S)-pyrrolidine-1,2-dicarboxylate]
Raji cells
  activity on viability of Raji cells (in words): moderate inhibition

## COC(=O)[C@@]12OC[C@]34C([C@@H](O)[C@@H]1O)[C@@]1(C)CC(=O)C(OC(=O)[C@@H](N)Cc5ccccc5)=C(C)[C@@H]1C[C@H]3OC(=O)[C@H](OC(=O)C=C(C)C)[C@@H]24 (stereo partly drawn) [Compound 14, methyl (1R,2S,3S,3aS,3a1R,4R,6aR,7aR,11aS)-9-((L-phenylalanyl)oxy)-1,2-dihydroxy-8,11a-dimethyl-4-((3-methylbut-2-enoyl)oxy)-5,10-dioxo-1,4,5,6a,7,7a,10,11,11a,11b-decahydro-2H-3,3a1-(epoxymethano)dibenzo[de,g]chromene-3(3aH)-carboxylate]
[1]
  inhibition of cell viability (in words): significantly inhibit cell viability

## COC(=O)[C@@]12OC[C@]34C([C@@H](O)[C@@H]1O)[C@@]1(C)CC(=O)C(OC(=O)CNC(=O)CN)=C(C)[C@@H]1C[C@H]3OC(=O)[C@H](OC(=O)C=C(C)C)[C@@H]24 (stereo partly drawn) [Compound 20, methyl (1R,2S,3S,3aS,3a1R,4R,6aR,7aR,11aS)-9-((glycylglycyl)oxy)-1,2-dihydroxy-8,11a-dimethyl-4-((3-methylbut-2-enoyl)oxy)-5,10-dioxo-1,4,5,6a,7,7a,10,11,11a,11b-decahydro-2H-3,3a1-(epoxymethano)dibenzo[de,g]chromene-3(3aH)-carboxylate]
Raji cells
  activity on viability of Raji cells (in words): potent activities comparable to or higher than the parent brusatol

## COC(=O)[C@@]12OC[C@]34C([C@@H](O)[C@@H]1O)[C@@]1(C)CC(=O)C(OC(=O)C[C@H](C)NC(=O)C[C@H](C)N)=C(C)[C@@H]1C[C@H]3OC(=O)[C@H](OC(=O)C=C(C)C)[C@@H]24 (stereo partly drawn) [Compound 21, methyl (1R,2S,3S,3aS,3a1R,4R,6aR,7aR,11aS)-9-(((S)-3-((S)-3-aminobutanamido)butanoyl)oxy)-1,2-dihydroxy-8,11a-dimethyl-4-((3-methylbut-2-enoyl)oxy)-5,10-dioxo-1,4,5,6a,7,7a,10,11,11a,11b-decahydro-2H-3,3a1-(epoxymethano)dibenzo[de,g]chromene-3(3aH)-carboxylate]
Raji cells
  activity on viability of Raji cells (in words): potent activities comparable to or higher than the parent brusatol

## COC(=O)[C@@]12OC[C@]34C([C@@H](O)[C@@H]1O)[C@@]1(C)CC(=O)C(OC(=O)[C@H](C)NC(=O)[C@H](C)N)=C(C)[C@@H]1C[C@H]3OC(=O)[C@H](OC(=O)C=C(C)C)[C@@H]24 (stereo partly drawn) [Compound 22, methyl (1R,2S,3S,3aS,3a1R,4R,6aR,7aR,11aS)-9-((L-alanyl-L-alanyl)oxy)-1,2-dihydroxy-8,11a-dimethyl-4-((3-methylbut-2-enoyl)oxy)-5,10-dioxo-1,4,5,6a,7,7a,10,11,11a,11b-decahydro-2H-3,3a1-(epoxymethano)dibenzo[de,g]chromene-3(3aH)-carboxylate]
Raji cells
  activity on viability of Raji cells (in words): not active

## COC(=O)[C@@]12OC[C@]34C([C@@H](O)[C@@H]1O)[C@@]1(C)CC(=O)C(OC(=O)CNC(=O)CNC(=O)CN)=C(C)[C@@H]1C[C@H]3OC(=O)[C@H](OC(=O)C=C(C)C)[C@@H]24 (stereo partly drawn) [Compound 23, methyl (1R,2S,3S,3aS,3a1R,4R,6aR,7aR,11aS)-9-((glycylglycylglycyl)oxy)-1,2-dihydroxy-8,11a-dimethyl-4-((3-methylbut-2-enoyl)oxy)-5,10-dioxo-1,4,5,6a,7,7a,10,11,11a,11b-decahydro-2H-3,3a1-(epoxymethano)dibenzo[de,g]chromene-3(3aH)-carboxylate]
Raji cells
  activity on viability of Raji cells (in words): potent activities comparable to or higher than the parent brusatol

## COC(=O)[C@@]12OC[C@]34C([C@@H](O)[C@@H]1O)[C@@]1(C)CC(=O)C(OC(=O)C[C@H](C)N)=C(C)[C@@H]1C[C@H]3OC(=O)[C@H](OC(=O)C=C(C)C)[C@@H]24 (stereo partly drawn) [Compound 26-TFA]
[2]
  Plasma stability remaining % at 60 min, human: 44%
[3]
  Plasma stability remaining % at 60 min, rat: 39%

## COC(=O)[C@@]12OC[C@]34C([C@@H](O)[C@@H]1O)[C@@]1(C)CC(=O)C(OC(=O)[C@@H]5CCCN5)=C(C)[C@@H]1C[C@H]3OC(=O)[C@H](OC(=O)C=C(C)C)[C@@H]24 (stereo partly drawn) [Compound 31, (1R,2S,3S,3aS,3a1R,4R,6aR,7aR,11aS)-1,2-dihydroxy-3-(methoxycarbonyl)-8,11a-dimethyl-4-((3-methylbut-2-enoyl)oxy)-5,10-dioxo-1,3,3a,4,5,6a,7,7a,10,11,11a,11b-dodecahydro-2H-3,3a1-(epoxymethano)dibenzo[de,g]chromen-9-yl L-prolinate]
[1]
  inhibition of cell viability (in words): significantly inhibit cell viability
Raji cells
  activity on viability of Raji cells (in words): potent activities comparable to or higher than the parent brusatol

## CC(C)=CC(=O)O[C@H]1C(=O)O[C@@H]2C[C@H]3C(C)=C(O)C(=O)C[C@]3(C)C3[C@@H](O)[C@H](O)[C@@]4(C(=O)NCCCCCCNC(=O)CCC[C@@H]5SC[C@@H]6NC(=O)N[C@@H]65)OC[C@]32[C@@H]14 (stereo partly drawn) [Compound 51046, (1R,2S,3S,3aS,3a1R,4R,6aR,7aR,11aS)-1,2,9-trihydroxy-8,11a-dimethyl-5,10-dioxo-3-((6-(4-((3aS,4S,6aR)-2-oxohexahydro-1H-thieno[3,4-d]imidazol-4-yl)butanamido)hexyl)carbamoyl)-1,3,3a,4,5,6a,7,7a,10,11,11a,11b-dodecahydro-2H-3,3a1-(epoxymethano)dibenzo[de,g]chromen-4-yl 3-methylbut-2-enoate]
Jeko-1
  IC50: 3010 nM
PDX223
  IC50: 8970 nM
Toledo
  IC50: 494 nM
Pfeiffer
  IC50: 8910 nM
PDX129
  IC50: 1640 nM

## COC(=O)[C@@]12OC[C@]34C([C@@H](O)[C@@H]1O)[C@@]1(C)CC(=O)C(OC(=O)CCCC[C@@H]5SC[C@@H]6NC(=O)N[C@@H]65)=C(C)[C@@H]1C[C@H]3OC(=O)[C@H](OC(=O)C=C(C)C)[C@@H]24 (stereo partly drawn) [Compound 51048, methyl (1R,2S,3S,3aS,3a1R,4R,6aR,7aR,11aS)-1,2-dihydroxy-8,11a-dimethyl-4-((3-methylbut-2-enoyl)oxy)-5,10-dioxo-9-((5-((3aS,4S,6aR)-2-oxohexahydro-1H-thieno[3,4-d]imidazol-4-yl)pentanoyl)oxy)-1,4,5,6a,7,7a,10,11,11a,11b-decahydro-2H-3,3a1-(epoxymethano)dibenzo[de,g]chromene-3(3aH)-carboxylate]
PI3Kγ
  binding activity with PI3Kγ (in words): relatively strong
Jeko-1
  IC50: 1190 nM
PDX223
  IC50: 3560 nM
Toledo
  IC50: > 10000 nM
Pfeiffer
  IC50: 3170 nM
PDX129
  IC50: 1730 nM

## COC(=O)[C@@]12OC[C@]34C([C@@H](O)[C@@H]1O)[C@@]1(C)CC(=O)C(OC(=O)CCCCCNC(=O)CCCC[C@@H]5SC[C@@H]6NC(=O)N[C@@H]65)=C(C)[C@@H]1C[C@H]3OC(=O)[C@H](OC(=O)C=C(C)C)[C@@H]24 (stereo partly drawn) [Compound 51052, methyl (1R,2S,3S,3aS,3a1R,4R,6aR,7aR,11aS)-1,2-dihydroxy-8,11a-dimethyl-4-((3-methylbut-2-enoyl)oxy)-5,10-dioxo-9-((6-(5-((3aS,4S,6aR)-2-oxohexahydro-1H-thieno[3,4-d]imidazol-4-yl)pentanamido)hexanoyl)oxy)-1,4,5,6a,7,7a,10,11,11a,11b-decahydro-2H-3,3a1-(epoxymethano)dibenzo[de,g]chromene-3(3aH)-carboxylate]
GST-tagged PI3Kγ
  association with GST-tagged PI3Kγ in vitro (in words): formed a complex
Jeko-1
  IC50: 28 nM
PDX223
  IC50: 108 nM
Toledo
  IC50: 388 nM
Pfeiffer
  IC50: 79 nM
PDX129
  IC50: 76 nM
